Read-outs that look alike come from different tables or passages of the source.
Test system: HIV (LAV 1)
Assay: microbe, parasite or virus in culture
Settings: for Viable cell count / Viral antigen-positive cell percentage: 4-day addition; for viability at 1 µg/mL / viability at 2.5 µg/mL / viability at 5 µg/mL / viability at 10 µg/mL: Human immunodeficiency virus 1, CCRF-CEM
Method in brief: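 CEM cells were infected with HIV LAV 1 at MOI 0.05 and cultured with test substance at 10, 5, 2.5 or 1 mcg/ml, with medium exchanged periodically up to 30 days. Viable cell count and percentage were measured by trypan blue, and antigen-positive cells by immunofluorescence with anti-HIV antiserum, at 4–30 days. Values are means of two wells.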

CCn1cc(C(=O)O)c(=O)c2cc(F)c(N3CCNCC3)cc21 [NFLX, 1-ethyl-6-fluoro-1,4-dihydro-4-oxo-7-(1-piperazinyl)-3-quinolinecarboxylic acid]
Viable cell count (1 mcg/ml, after 4 days): 230 × 10⁴ cells/ml
Viral antigen-positive cell percentage (1 mcg/ml, after 4 days): 88%
Viable cell count (1 mcg/ml, after 7 days): 52 × 10⁴ cells/ml
Viral antigen-positive cell percentage (1 mcg/ml, after 7 days): 75%
Viable cell count (1 mcg/ml, after 10 days): 26 × 10⁴ cells/ml
Viable cell count (1 mcg/ml, after 20 days): 0 × 10⁴ cells/ml
Viable cell count (1 mcg/ml, after 30 days): 0 × 10⁴ cells/ml
Viable cell count (2.5 mcg/ml, after 4 days): 240 × 10⁴ cells/ml
Viral antigen-positive cell percentage (2.5 mcg/ml, after 4 days): 93%
Viable cell count (2.5 mcg/ml, after 7 days): 59 × 10⁴ cells/ml
Viral antigen-positive cell percentage (2.5 mcg/ml, after 7 days): 55%
Viable cell count (2.5 mcg/ml, after 10 days): 40 × 10⁴ cells/ml
Viable cell count (2.5 mcg/ml, after 20 days): 2 × 10⁴ cells/ml
Viable cell count (2.5 mcg/ml, after 30 days): 70 × 10⁴ cells/ml
Viral antigen-positive cell percentage (2.5 mcg/ml, after 30 days): ≦1%
Viable cell count (5 mcg/ml, after 4 days): 230 × 10⁴ cells/ml
Viral antigen-positive cell percentage (5 mcg/ml, after 4 days): 83%
Viable cell count (5 mcg/ml, after 7 days): 84 × 10⁴ cells/ml
Viral antigen-positive cell percentage (5 mcg/ml, after 7 days): 65%
Viable cell count (5 mcg/ml, after 10 days): 86 × 10⁴ cells/ml
Viable cell count (5 mcg/ml, after 20 days): 28 × 10⁴ cells/ml
Viable cell count (5 mcg/ml, after 30 days): 330 × 10⁴ cells/ml
Viral antigen-positive cell percentage (5 mcg/ml, after 30 days): ≦1%
Viable cell count (10 mcg/ml, after 4 days): 180 × 10⁴ cells/ml
Viral antigen-positive cell percentage (10 mcg/ml, after 4 days): 92%
Viable cell count (10 mcg/ml, after 7 days): 60 × 10⁴ cells/ml
Viral antigen-positive cell percentage (10 mcg/ml, after 7 days): 63%
Viable cell count (10 mcg/ml, after 10 days): 250 × 10⁴ cells/ml
Viral antigen-positive cell percentage (10 mcg/ml, after 10 days): 50%
Viable cell count (10 mcg/ml, after 20 days): 370 × 10⁴ cells/ml
Viral antigen-positive cell percentage (10 mcg/ml, after 20 days): 4%
Viable cell count (10 mcg/ml, after 30 days): 400 × 10⁴ cells/ml
Viral antigen-positive cell percentage (10 mcg/ml, after 30 days): ≦1%
viability at 1 µg/mL (96 h, read-out: Viable cell percentage, 1 mcg/ml, 4-day addition, after 4 days): 94%
viability at 2.5 µg/mL (96 h, read-out: Viable cell percentage, 2.5 mcg/ml, 4-day addition, after 4 days): 94%
viability at 5 µg/mL (96 h, read-out: Viable cell percentage, 5 mcg/ml, 4-day addition, after 4 days): 94%
viability at 10 µg/mL (96 h, read-out: Viable cell percentage, 10 mcg/ml, 4-day addition, after 4 days): 92%
viability at 1 µg/mL (read-out: Viable cell percentage, 1 mcg/ml, 4-day addition, after 7 days): 59%
viability at 1 µg/mL (read-out: Viable cell percentage, 1 mcg/ml, 4-day addition, after 10 days): 30%
viability at 1 µg/mL (read-out: Viable cell percentage, 1 mcg/ml, 4-day addition, after 20 days): 0%
viability at 1 µg/mL (read-out: Viable cell percentage, 1 mcg/ml, 4-day addition, after 30 days): 0%
viability at 2.5 µg/mL (read-out: Viable cell percentage, 2.5 mcg/ml, 4-day addition, after 7 days): 67%
viability at 2.5 µg/mL (read-out: Viable cell percentage, 2.5 mcg/ml, 4-day addition, after 10 days): 47%
viability at 2.5 µg/mL (read-out: Viable cell percentage, 2.5 mcg/ml, 4-day addition, after 20 days): 33%
viability at 2.5 µg/mL (read-out: Viable cell percentage, 2.5 mcg/ml, 4-day addition, after 30 days): 96%
viability at 5 µg/mL (read-out: Viable cell percentage, 5 mcg/ml, 4-day addition, after 7 days): 67%
viability at 5 µg/mL (read-out: Viable cell percentage, 5 mcg/ml, 4-day addition, after 10 days): 61%
viability at 5 µg/mL (read-out: Viable cell percentage, 5 mcg/ml, 4-day addition, after 20 days): 81%
viability at 5 µg/mL (read-out: Viable cell percentage, 5 mcg/ml, 4-day addition, after 30 days): 95%
viability at 10 µg/mL (read-out: Viable cell percentage, 10 mcg/ml, 4-day addition, after 7 days): 71%
viability at 10 µg/mL (read-out: Viable cell percentage, 10 mcg/ml, 4-day addition, after 10 days): 91%
viability at 10 µg/mL (read-out: Viable cell percentage, 10 mcg/ml, 4-day addition, after 20 days): 97%
viability at 10 µg/mL (read-out: Viable cell percentage, 10 mcg/ml, 4-day addition, after 30 days): 94%

From EP0394553A2, “Use of fluorine containing pyridone carboxylic acid derivatives for preparing a medicament for the treatment of HIV infections” (DAIICHI PHARMACEUTICAL CO., LTD., priority 1989, dated 1990)
